Data set [1] is described as follows: Retinoid degradation in the presence of BPO. Type of data set: physicochemical. How it is done:
Another technical problem to be solved for the formulation of a composition comprising both adapalene and BPO is the chemical and physical compatibility of these compounds within the same formulation provided that common retinoids are natural oxidization sensitive, visible light and ultra violet sensitive and BPO being a strong oxidizing agent.
Indeed, BPO triggers rapidly degradation of natural oxidization sensitive retinoids: 50% of tretinoine is degraded within 2 hours and 95% is degraded within 24 hours.

The conditions of data set [2]: 40° C., cited from earlier work.

Where two headings read alike, the source gives them in different places.

`CC1=C(/C=C/C(C)=C/C=C/C(C)=C/C(=O)O)C(C)(C)CCC1` [tretinoine]: the “retinoid degraded in the presence of BPO” value is 50% in data set [1] (within 2 hours) and 95% in data set [1] (within 24 hours).

On to `O=C(OOC(=O)c1ccccc1)c1ccccc1` [BPO, benzoyl peroxide], for which the BPO degradation time in data set [2] (in PEG 400 (0.5 mg/g)) is 14 days; in data set [2] (in ethanol) it was 29 days; in data set [2] (in propylene glycol), 53 days.

As to `COc1ccc(-c2ccc3cc(C(=O)O)ccc3c2)cc1C12CC3CC(CC(C3)C1)C2` [adapalene, 6-[3-(1-adamantyl)-4-methoxyphenyl]-2-naphthoic acid], the “adapalene degradation in the composition with BPO” value in data set [1] (within 24 hours) is given as “no adapalene degradation”.

The record behind these values is patent US20170216235A1, “ADMINISTRATION OF ADAPALENE AND BENZOYL PEROXIDE FOR THE LONG-TERM TREATMENT OF ACNE VULGARIS” (GALDERMA RESEARCH & DEVELOPMENT, priority 2007, published 2017).
